Measurements as given in patent US20060270607A1, “Pharmaceutical combinations” (priority 1999, published 2006).

Columns and labels:
[1] = test system: platelet P-selectin expression; experiment: ADP-induced platelet P-selectin expression in human washed platelets; type: cell-based; settings: ADP 10 μM, GR144053 10 μM, compound B 10 nM, Mean ± se (n = 3), Control 13.1 ± 3.3
Description: P-selectin expression on the platelet membrane surface plays an important role in platelet-leukocyte-conjugate formation and there is increasing evidence that such interactions play an important role in both acute thrombosis and in the inflammatory aetiology of progressive atheroscerosis. The effect of a P2T-receptor antagonist (compound B) on ADP (10 μM)-induced platelet P-selectin expression was investigated in human washed platelets. The effect of compound B (10 nM) was compared with that of the GPIIb/IIIa antagonist, GR144053 (10 μM, Foster et al (1993) Thromb Haemostas; 69(6):559, synthesized in AstraZeneca R & D, Charnwood). These concentrations are 4 (compound B)—and 600 (GR144053)—fold higher than the respective IC50 values for inhibition of ADP-induced platelet aggregation in this system.

[2] = test system: ADP-induced platelet aggregation; experiment: ADP-induced platelet aggregation, whole blood impedance aggregometry; type: cell-based; settings: human blood ex vivo; for Aggregation, ADP 10 μM, −compound A: n = 7-8
Description: Human Blood In Vitro—Compound A and Clopidogrel
Compound A (500 nM final concentration) was added to blood from healthy human volunteers receiving clopidogrel (Sanofi-Winthrop, 75 mg/day for 11 days). ADP-induced platelet aggregation (+/−compound A) was measured using whole blood impedance aggregometry.

Structure (SMILES)	P-selectin expression (% positive cells) [1] [% positive cells]	Inhibition of the ADP response (in words) ([2]; clopidogrel alone, 75 mg/day for 11 days)	Aggregation, ADP 10 μM, −compound A ([2]; oral clopidogrel 75 mg/day for 1 day, mean ± SD) [ohms]	Aggregation, ADP 10 μM, −compound A ([2]; oral clopidogrel 75 mg/day for 2 days, mean ± SD) [ohms]	Aggregation, ADP 10 μM, −compound A ([2]; oral clopidogrel 75 mg/day for 3 days, mean ± SD) [ohms]	Aggregation, ADP 300 μM, −compound A ([2]; oral clopidogrel 75 mg/day for 3 days, n=1)	Aggregation, ADP 10 μM, −compound A ([2]; oral clopidogrel 75 mg/day for 11 days, mean ± SD) [ohms]	Aggregation, ADP 300 μM, −compound A ([2]; oral clopidogrel 75 mg/day for 11 days, mean ± SD, n=3)
Cl.Cl.Cl.N=C(N)c1ccc(N2CCN(C3CCN(CC(=O)O)CC3)CC2)cc1 [GR144053]	17.7 ± 1.7	–	–	–	–	–	–	–
COC(=O)[C@H](c1ccccc1Cl)N1CCc2sccc2C1 [clopidogrel]	–	slowly developing, incomplete inhibition	13.8 ± 2.3	11.8 ± 3.4	10.2 ± 4.5	13.9^(n=1) ohms	8.2 ± 4.4	11.4 ± 5.2^(n=3) ohms
